Results reported in patent publication US10125134B2 (Mirati Therapeutics, Inc., priority 2016, dated 2018).
Like-named read-outs stand apart in the source and are kept apart here.

Assays:
[1] = target: KRas G12C (Homo sapiens, UniProt P01116, C118S/C51S/C80L/G12C); assay: KRas G12C Modification Assay (LCMS detection of covalent adduct); assay type: binding; conditions: normalized percent of control; tested at 5 μM concentration for 3 hours
Procedure, shortened: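 Covalent modification was read by reverse-phase LC/MS of intact protein after compound exposure, each reaction stopped at its time point with 25 mM acetic acid. Unmodified-protein signal, taken as percent of total, was normalised to untreated protein and reported as POC.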

[2] = tested on: NCI-H358 cells (express KRas G12C), Phospho-ERK; assay: Cellular inhibition of KRas G12C: Phospho-ERK in NCI-H358 cells; assay type: cell-based; conditions: pERK(Thr202/Tyr204) normalized with GAPDH, NCI-H358 cells, 3 hours, read-out: IC50
Procedure, shortened: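 IC50 derived by 4-parameter fit of GAPDH-normalized pERK(Thr202/Tyr204) signal, as percent of DMSO control. Signal came from in-cell immunodetection with infrared secondaries after 3 h compound exposure of KRas G12C NCI-H358 cells at 0.5% DMSO.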

| SMILES | POC [1] | IC50 ([2]; Homo sapiens, NCI-H358, 3 h) | IC50 ([2]; Homo sapiens) | IC50 [2] |
| --- | --- | --- | --- | --- |
| C=CC(=O)N1CCN(c2nc(O[C@H](C)CN3CCCC3)nc3c2CCN(c2cc(O)cc4ccccc24)C3)CC1 [Example 120, (R)-1-(4-(7-(3-hydroxynaphthalen-1-yl)-2-((1-(pyrrolidin-1-yl)propan-2-yl)oxy)-5,6,7,8-tetrahydropyrido[3,4-d]pyrimidin-4-yl)piperazin-1-yl)prop-2-en-1-one] | C (“C”>50% POC) | 0.1 to 1000 nM | – | – |
| C=CC(=O)N1CCN(c2nc(OC[C@H]3C[C@H](F)CN3C)nc3c2CCN(c2cccc(F)c2C(F)(F)F)C3)CC1CC#N (stereo partly drawn) [Example 416, 2-(1-acryloyl-4-(2-(((2R,4S)-4-fluoro-1-methylpyrrolidin-2-yl)methoxy)-7-(3-fluoro-2-(trifluoromethyl)phenyl)-5,6,7,8-tetrahydropyrido[3,4-d]pyrimidin-4-yl)piperazin-2-yl)acetonitrile] | C (“C”>50% POC) | 0.1 to 1000 nM | – | – |
| C=CC(=O)N1CCN(c2ncnc3c2CCN(c2c(C)ccc4[nH]ncc24)C3)CC1 [Example 7, 1-(4-(7-(5-methyl-1H-indazol-4-yl)-5,6,7,8-tetrahydropyrido[3,4-d]pyrimidin-4-yl)piperazin-1-yl)prop-2-en-1-one] | A (“A”≤25% POC) | > 1000 nM | – | – |
| C=CC(=O)N1CC2(C1)CN(c1ncnc3c1CC(=O)N(c1cc(O)cc4ccccc14)C3)C2 [Example 114, 4-(6-acryloyl-2,6-diazaspiro[3.3]heptan-2-yl)-7-(3-hydroxynaphthalen-1-yl)-7,8-dihydropyrido[3,4-d]pyrimidin-6(5H)-one] | B (“B”>25% POC−≤50% POC) | – | > 1000 nM | – |
| C=CC(=O)N1CCN(c2nc(OCCN3CCC(C#N)CC3)nc3c2CCN(c2cc(O)cc4ccccc24)C3)CC1 [Example 81, 1-(2-((4-(4-acryloylpiperazin-1-yl)-7-(3-hydroxynaphthalen-1-yl)-5,6,7,8-tetrahydropyrido[3,4-d]pyrimidin-2-yl)oxy)ethyl)piperidine-4-carbonitrile] | C (“C”>50% POC) | > 1000 nM | – | – |
| C=CC(=O)N1CCN(c2nc(OC[C@@H]3CCCN3C)nc3c2CCN(c2cccc(F)c2Cl)C3)C[C@@H]1CC#N [Example 405, 2-((S)-1-acryloyl-4-(7-(2-chloro-3-fluorophenyl)-2-(((S)-1-methylpyrrolidin-2-yl)methoxy)-5,6,7,8-tetrahydropyrido[3,4-d]pyrimidin-4-yl)piperazin-2-yl)acetonitrile] | C (“C”>50% POC) | 0.1 to 1000 nM | – | – |
| C=CC(=O)N1CCN(c2nc(OC[C@H]3CCCN3C)nc3c2CCN(c2cccc4ccccc24)C3)C[C@@H]1CC#N [Example 267, 2-((S)-1-acryloyl-4-(2-(((R)-1-methylpyrrolidin-2-yl)methoxy)-7-(naphthalen-1-yl)-5,6,7,8-tetrahydropyrido[3,4-d]pyrimidin-4-yl)piperazin-2-yl)acetonitrile] | C (“C”>50% POC) | – | 0.1 to 1000 nM | – |
| C=CC(=O)N1CCN(c2nc(OCc3ncc[nH]3)nc3c2CCN(c2cccc4ccccc24)C3)C[C@@H]1CC#N [Example 351, 2-[(2S)-4-[2-(1H-imidazol-2-ylmethoxy)-7-(1-naphthyl) -6,8-dihydro-5H-pyrido[3,4-d]pyrimidin-4-yl]-1-prop-2-enoyl-piperazin-2-yl]acetonitrile] | C (“C”>50% POC) | 0.1 to 1000 nM | – | – |
| C=CC(=O)N1CCN(c2nc(OCCN(C)C)nc3c2CCN(c2cc(O)cc4ccccc24)C3)C(CCO)C1 (centres unmarked) [Example 172, 1-(4-(2-(2-(dimethylamino)ethoxy)-7-(3-hydroxynaphthalen-1-yl)-5,6,7,8-tetrahydropyrido[3,4-d]pyrimidin-4-yl)-3-(2-hydroxyethyl)piperazin-1-yl)prop-2-en-1-one] | C (“C”>50% POC) | > 1000 nM | – | – |
| C=CC(=O)N1CCN(c2nc(OC[C@@H]3CCCN3CC)nc3c2CCN(c2ccc(F)c4ccccc24)C3)CC1CC#N (stereo partly drawn) [Example 322, 2-(1-acryloyl-4-(2-(((S)-1-ethylpyrrolidin-2-yl)methoxy)-7-(4-fluoronaphthalen-1-yl)-5,6,7,8-tetrahydropyrido[3,4-d]pyrimidin-4-yl)piperazin-2-yl)acetonitrile] | C (“C”>50% POC) | 0.1 to 1000 nM | – | – |
| C=CC(=O)N1CCN(c2nc(OCC(C)(C)N(C)C)nc3c2CCN(c2cccc4ccccc24)C3)CC1CC#N (centres unmarked) [Example 396, 2-(1-acryloyl-4-(2-(2-(dimethylamino)-2-methylpropoxy)-7-(naphthalen-1-yl)-5,6,7,8-tetrahydropyrido[3,4-d]pyrimidin-4-yl)piperazin-2-yl)acetonitrile] | C (“C”>50% POC) | – | – | 0.1 to 1000 nM |
| C=CC(=O)N1CCN(c2nc(O[C@H](C)CN(C)C)nc3c2CCN(c2cc(O)ccc2OC)C3)CC1 [Example 94, (R)-1-(4-(2-((1-(dimethylamino)propan-2-yl)oxy)-7-(5-hydroxy-2-methoxyphenyl)-5,6,7,8-tetrahydropyrido[3,4-d]pyrimidin-4-yl)piperazin-1-yl)prop-2-en-1-one] | A (“A”≤25% POC) | – | > 1000 nM | – |
| C=CC(=O)N1CCN(c2ncnc3c2CCN(c2cccc4ccc(O)cc24)C3)CC1 [Example 2, 1-(4-(7-(7-hydroxynaphthalen-1-yl)-5,6,7,8-tetrahydropyrido[3,4-d]pyrimidin-4-yl)piperazin-1-yl)prop-2-en-1-one] | A (“A”≤25% POC) | > 1000 nM | – | – |
| C=CC(=O)N1CCN(c2nc(O[C@H](C)CN(C)C)nc3c2CCN(c2cc(O)c(Cl)c4ccccc24)C3)CC1 [Example 125, (R)-1-(4-(7-(4-chloro-3-hydroxynaphthalen-1-yl)-2-((1-(dimethylamino)propan-2-yl)oxy)-5,6,7,8-tetrahydropyrido[3,4-d]pyrimidin-4-yl)piperazin-1-yl)prop-2-en-1-one] | A (“A”≤25% POC) | – | > 1000 nM | – |
| C=CC(=O)N1CCN(c2nc(O[C@H](C)CN(C)C)nc3c2CCN(c2cc(O)cc(OC(F)(F)F)c2)C3)CC1 [Example 91, (R)-1-(4-(2-((1-(dimethylamino)propan-2-yl)oxy)-7-(3-hydroxy-5-(trifluoromethoxy)phenyl)-5,6,7,8-tetrahydropyrido[3,4-d]pyrimidin-4-yl)piperazin-1-yl)prop-2-en-1-one] | A (“A”≤25% POC) | – | > 1000 nM | – |
| C=CC(=O)N1CCN(c2nc(OCCCN3CCOCC3)nc3c2CCN(c2cc(O)cc4cc(C)[nH]c24)C3)CC1 [Example 167, 1-(4-(7-(5-hydroxy-2-methyl-1H-indol-7-yl)-2-(3-morpholinopropoxy)-5,6,7,8-tetrahydropyrido[3,4-d]pyrimidin-4-yl)piperazin-1-yl)prop-2-en-1-one] | B (“B”>25% POC−≤50% POC) | – | > 1000 nM | – |
| C=CC(=O)N1CCN(c2nc(OC[C@@H]3CCCN3C)nc3c2CCN(c2cccc(F)c2C(F)(F)F)C3)C[C@@H]1CC#N [Example 328, 2-((S)-1-acryloyl-4-(7-(3-fluoro-2-(trifluoromethyl)phenyl)-2-(((S)-1-methylpyrrolidin-2-yl)methoxy)-5,6,7,8-tetrahydropyrido[3,4-d]pyrimidin-4-yl)piperazin-2-yl)acetonitrile] | C (“C”>50% POC) | 0.1 to 1000 nM | – | – |
| C=CC(=O)N1CCN(c2nc(OC[C@@H]3CCCN3C)nc3c2CCN(c2c(C(F)(F)F)ccc4[nH]ncc24)C3)CC1 [Example 156, (S)-1-(4-(2-((1-methylpyrrolidin-2-yl)methoxy)-7-(5-(trifluoromethyl)-1H-indazol-4-yl)-5,6,7,8-tetrahydropyrido[3,4-d]pyrimidin-4-yl)piperazin-1-yl)prop-2-en-1-one] | C (“C”>50% POC) | 0.1 to 1000 nM | – | – |
| C=CC(=O)N1CCN(c2nc(OC[C@@H]3CCCN3C)nc3c2CCN(c2cccc4ccccc24)C3)C(CC#N)C1 (stereo partly drawn) [Example 437, 2-(4-acryloyl-1-(2-(((S)-1-methylpyrrolidin-2-yl)methoxy)-7-(naphthalen-1-yl)-5,6,7,8-tetrahydropyrido[3,4-d]pyrimidin-4-yl)piperazin-2-yl)acetonitrile] | C (“C”>50% POC) | > 1000 nM | – | – |
| C=CC(=O)N1CCN(c2nc(OC[C@@H]3C[C@@H](OC)CN3C)nc3c2CCN(c2cccc4ccccc24)C3)C[C@@H]1CC#N [Example 327, 2-((S)-1-acryloyl-4-(2-(((2S,4R)-4-methoxy-1-methylpyrrolidin-2-yl)methoxy)-7-(naphthalen-1-yl)-5,6,7,8-tetrahydropyrido[3,4-d]pyrimidin-4-yl)piperazin-2-yl)acetonitrile] | C (“C”>50% POC) | 0.1 to 1000 nM | – | – |
| C=CC(=O)N1CCN(c2nc(OC[C@@H]3CCCN3C)nc3c2CCN(c2cccc4ccncc24)C3)C[C@@H]1CC#N [Example 429, 2-((S)-1-acryloyl-4-(7-(isoquinolin-8-yl)-2-(((S)-1-methylpyrrolidin-2-yl)methoxy)-5,6,7,8-tetrahydropyrido[3,4-d]pyrimidin-4-yl)piperazin-2-yl)acetonitrile] | C (“C”>50% POC) | 0.1 to 1000 nM | – | – |
| C=CC(=O)N1CCN(c2nc(OC[C@@H]3CCCN3C)nc3c2CCN(c2cccc(F)c2C)C3)C[C@@H]1CC#N [Example 388, 2-((S)-1-acryloyl-4-(7-(3-fluoro-2-methylphenyl)-2-(((S)-1-methylpyrrolidin-2-yl)methoxy)-5,6,7,8-tetrahydropyrido[3,4-d]pyrimidin-4-yl)piperazin-2-yl)acetonitrile] | C (“C”>50% POC) | 0.1 to 1000 nM | – | – |
